# Experimental data reported in patent publication US7973213B2, “Antibiotic resistance conferred by a plant ABC transporter gene when expressed in transgenic plants” (University of Tennessee Research Foundation, priority 2005, dated 2011).
# Tests used:
# Escherichia coli DH5α = experiment: Kanamycin resistance of transformed E. coli in 96-well microtiter plates (optical density 630 nm); format: cell-based; settings: E. coli transformed with pKS-ABC, IPTG 1 mM, 24 hr
# Description: Escherichia coli DH5α was obtained from stock strains available within our lab. All strains were cultured on LB media. Three plasmids were used in this study. pKS-ABC contains the Atwbc19 gene under the control of the lacZ promoter in pBluescript II SK+; pKS-nptII contains the nptII gene with the lacZ promoter in pBluescript II SK+; and pKS is pBluescript II SK+ with no inserted genes as a control. The microorganisms were maintained in glycerol stocks and stored at −80° C. Working cultures were obtained by inoculating a loopful of culture into 50 ml LB broth supplemented with ampicillin (100 mg/l) and incubated at 37° C. for 24 hr.
# E. coli DH5α were transformed with pKS, pKS-ABC, and pKS-nptII by freeze/thaw method (Hanahan 1983). The gram-negative […] Escherichia coli DH5α were used in all transformations. For selection of transformants, aliquots of bacteria were spread onto solidified LB medium supplemented with ampicillin (100 mg/l) and incubated at 37° C.
# Isopropyl-b-D-thiogalctopyranoside (IPTG) at 1 mM was used to induce Atwbc19 expression. Each well was filled with 199 μl LB, IPTG and varying concentrations of kanamycin or gentamycin and 50 μl bacterial treatment (DH5α transformed with pKS-ABC, DH5α transformed with pKS-nptII, DH5α transformed with pKS or none). […] Optical densities were measured at 630 nm (Biorad) after incubating microtiter plates at 37° C. for 24 hr.
# [1] = test system: Arabidopsis thaliana insertional knockout mutants; experiment: Root growth of Arabidopsis insertional mutants on MSO media with kanamycin; format: in vivo; settings: media with 100 mg/l kanamycin, 2 weeks
# Description: Sequence-tagged insertional mutant lines for the three ABC transporters, Atwbc19 (SALK—107731), Atwbc18 (SALK—100187) and Atwbc16 (SALK—119868) were obtained from ABRC Arabidopsis knock-out library. Homozygosity was tested by PCR of genomic DNA using 3 primers (Table 1). Two of the primers are specific to the native gene and amplify a known fragment. The third primer is specific to the T-DNA. Where the T-DNA is inserted between the two gene specific primers, a smaller fragment is generated allowing the identification of insertion in the gene of interest. The fragment was sequenced to ensure that it mapped at the expected loci. Kanamycin resistance was assessed by growing the mutants on MSO media with and without 100 mg/l kanamycin. Stratified seeds were germinated on 4 Petri dishes with 6 plants for each line and placed vertically in a growth chamber at 25 degrees. Root length was measured after 2 weeks. To quantify NPTII protein levels, total protein was extracted from 100 mg of root and shoot tissue from seedlings germinated on MSO media for 2 weeks, with 2 replicate samples per line. An ELISA was performed using a kit according to the manufactures instructions (Agdia, Elkhart, Ind., USA).
# [2] = test system: Nicotiana tabacum cv Xanthi; experiment: Root growth of T1 transgenic tobacco (pS15-ABC-dKan) on media with kanamycin; format: in vivo; settings: 200 mg/l kanamycin, 3 weeks
# Description: Segregation analysis was performed on MS media (Murashige et al., 1962) with B5 vitamins (Gamborg et al., 1968) and 3% sucrose (MSO media) containing 200 mg/l kanamycin. T1 seeds from plants transformed with pS15-ABC-dKan were surface sterilized and germinated on the media. Root growth analysis was performed as above on vertically positioned plates where 6 seeds per plate and 6 replicate plates for each event were germinated with and without 100 and 200 mg/l kanamycin. Root length was measured after 3 weeks. All experiments were performed in a 25° C. growth cabinet under constant 40 μE irradiance.
# [3] = test system: transgenic tobacco events 28 and 30; experiment: Resistance of Atwbc19 transgenic tobacco events to other antibiotics; format: in vivo, Nicotiana tabacum; settings: Atwbc19-only transgenic events 28 and 30
molecule,measurement,setting,value
NC[C@H]1O[C@H](O[C@H]2[C@H](O)[C@@H](O[C@H]3O[C@H](CO)[C@@H](O)[C@H](N)[C@H]3O)[C@H](N)C[C@@H]2N)[C@H](O)[C@@H](O)[C@@H]1O [kanamycin],kanamycin concentrations to which Atwbc19 confers resistance,Escherichia coli DH5α,below 12.5 mg/l
same,root growth (root length),[1]; line SALK—100187 (Atwbc18 mutant),1.82±0.25 cm
same,root growth (root length),[1]; line SALK—107731 (Atwbc19 mutant),0.31±0.04 cm
same,root growth (root length),[1]; line SALK—119868 (Atwbc16 mutant),0.30±0.03 cm
same,Root length,"[2]; Atwbc19 transgenic event #28, T1 seeds",1.03±0.55 cm
same,Root length,"[2]; Atwbc19 transgenic event #30, T1 seeds",2.02±1.16 cm
same,Root length,[2]; control (non-transgenic) tobacco,0.37±0.09 cm
O=C(N[C@H](CO)[C@H](O)c1ccc([N+](=O)[O-])cc1)C(Cl)Cl [chloramphenicol],resistance of plants to the antibiotic,[3],no resistance
NCC[C@H](O)C(=O)N[C@@H]1C[C@H](N)[C@@H](O[C@H]2O[C@H](CN)[C@@H](O)[C@H](O)[C@H]2O)[C@H](O)[C@H]1O[C@H]1O[C@H](CO)[C@@H](O)[C@H](N)[C@H]1O [amikacin],resistance of plants to the antibiotic,[3],no resistance
gentamycin,resistance of plants to the antibiotic,[3],no resistance
[H]/N=C(/N)N[C@H]1[C@H](O)[C@@H](O)[C@H](O[C@@H]2O[C@@H](C)[C@](O)(C=O)[C@H]2O[C@@H]2O[C@@H](CO)[C@H](O)[C@@H](O)[C@@H]2NC)[C@@H](N/C(N)=N\[H])[C@@H]1O [streptomycin],resistance of plants to the antibiotic,[3],no resistance
